# Test results published in US11384120B2, “Peptide capable of binding to biomarker for inflammatory and metabolic diseases, and use thereof” (NIBEC CO., LTD., priority 2019, dated 2022).
# Read-outs that look alike come from different tables or passages of the source.
# What was measured:
# RAW 264.7 cells [1] = experiment: cell permeability of rhodamine-labeled peptides by confocal microscopy; conditions: RAW 264.7, rhodamine-labeled peptide 50 μM, 20 minutes, FIG. 3
# Protocol: (§1) RAW 264.7 cells were seeded at a density of 2×10^4/well on a 6-well plate. After 24 hours, replacement was conducted with DMEM medium containing 0.5% FBS. The cells were treated with 50 μM of each of fluorescence (rhodamine)-labeled peptides of SEQ ID NOS: 1, 5 and 6. After 20 minutes, the cells were fixed and observed with a confocal microscope.
# IL-6 = IL-6 expression by ELISA in palmitic acid-treated HepG2 cells; type: cell-based; conditions: HepG2, peptide 200 μM 2 hours, then palmitic acid 200 μM 24 hours, medium, FIG. 4
# Protocol: HepG2 cells were plated at a density of 70% on a 6-well plate. After 16 hours, the cells were starved using DMEM medium containing 0.5% FBS for 2 hours. The cells were treated with a medium containing each of the peptides of SEQ ID NOS: 1 to 6 at a concentration of 200 μM for 2 hours, and were further treated with palmitic acid at a concentration of 200 μM to induce an inflammatory response for 24 hours. Each medium was collected, and the level of expression of IL-6, an inflammatory cytokine, was detected with an ELISA kit (R&D, Minneapolis, Minn., USA).
# RAW 264.7 cells [2] = test system: RAW 264.7 cells
# Protocol: as §1
Sequence,cell permeability (fluorescence in the cells) (RAW 264.7 cells [1]),expression level of IL-6 (IL-6),cell permeability (fluorescence in the cells) (RAW 264.7 cells [2])
GKCSTRGRKCCRRKK [SEQ ID NO: 5],excellent cell permeability,–,–
AESPLTNRGWNPGKCSTRGRKCCRRKK [SEQ ID NO: 6],–,lowest IL-6 expression level,excellent cell permeability
